The text below walks through data of patent US20160297768A1, “NOVEL IMIDAZOLE DERIVATIVES AND THERAPEUTIC USE THEREOF” (INDUSTRY-ACA-DEMIC COORPERATION FOUNDATION, YONSEI …, priority 2013, published 2016).

One assay relates to A549 cells. The assay is described as follows: Apoptotic activity by MTT analysis, A549 cells. In kind it is cell-based. The note with it: Homo sapiens, A549, 12 h, 15 μM of the compound, mean±standard deviation, read-out: Apoptosis (%) A549 cells. Here is the method: (§1) Lung cancer cells (A549), colorectal cancer cells (HCT116), HeLa cells, liver cancer cells (HepG2), T-cell leukemia cells (Jurkat), myeloid leukemia cells (K562), breast cancer cells (MCF-7 and MDA-MB-231) and myelocytic leukemia cells ([…]) were obtained from the American Type Culture Collection (ATCC), and cultured in 10% fetal bovine serum (FBS), 50 units/mL penicillin and 50 units/mL streptomycin-added RPMI 1640 (Invitrogen). The cells were maintained in a humidified 37° C., 5% CO2 atmosphere. The anticancer activity was detected by MTT analysis. Each type of cancer cells were plated in triplicate in a 96-well microtiter plate, and cultured at 37° C. for 24 hours. The cells were treated with each of the compounds prepared above at 37° C. for 12 hours. After the culturing of the cells, 10 μL of an MTT reagent ((3-[4,5-dimethyl-2-thiazolyl]-2,5-diphenyl-2H-tetrazoliumbromide) was added to each well, and cultured for 3.5 hours. The absorbance of each sample was detected using a UV microplate reader (SpectraMax 340PC 384, Molecular Devices) at 570 nm. The detection results were measured as a mean value. The effect of each compound on apoptosis is shown in Table 1.
(§2) The A549 and HeLa cells were treated with 15 μM of the compound for 12 hours. The apoptosis was detected using MTT (mean±standard deviation).

The subject of a further assay is HeLa cells. The assay is described as follows: Apoptotic activity by MTT analysis, HeLa cells. The format is cell-based. The note with it: Homo sapiens, HeLa, 12 h, 15 μM of the compound, mean±standard deviation, read-out: Apoptosis (%) HeLa cells. Here is the method: as §1, §2

For `CNC(=O)c1ccc(Cn2c(-c3cc(C(F)(F)F)cc(C(F)(F)F)c3)nc(-c3ccc(OC)cc3)c2-c2ccc(OC)cc2)cc1` [Example 119, 4-((2-(3,5-bis(trifluoromethyl)phenyl)-4,5-bis(4-methoxyphenyl)-1H-imidazole-1-yl)methyl)-N-methylbenzamide], the cytotoxicity at 15 µM in the assay with A549 cells came out at 39 ± 0.76%; with HeLa cells, 90 ± 1.73%.
Consider `COC(=O)c1ccc(Cn2c(-c3cc(C(F)(F)F)cc(C(F)(F)F)c3)nc(-c3ccc(OC)cc3)c2-c2ccc(OC)cc2)cc1` [Example 120, Methyl4-((2-(3,5-bis(trifluoromethyl)phenyl)-4,5-bis(4-methoxyphenyl)-1H-imidazole-1-yl)methyl)benzoate], for which the cytotoxicity at 15 µM is 40 ± 0.49% in the assay on A549 cells and 53 ± 1.84% in the assay with HeLa cells.
On to `COCCNC(=O)c1ccc(Cn2c(-c3cc(C(F)(F)F)cc(C(F)(F)F)c3)nc(-c3ccc(OC)cc3)c2-c2ccc(OC)cc2)cc1` [Example 121, 4-((2-(3,5-bis(trifluoromethyl)phenyl)-4,5-bis(4-methoxyphenyl)-1H-imidazole-1-yl)methyl)-N-(2-methoxyethyl)benzamide], for which the values for the cytotoxicity at 15 µM in the assay on A549 cells and in the assay with HeLa cells were 13 ± 0.38% and 19 ± 1.06%, respectively.
For `COCCOC(=O)c1ccc(Cn2c(-c3cc(C(F)(F)F)cc(C(F)(F)F)c3)nc(-c3ccc(OC)cc3)c2-c2ccc(OC)cc2)cc1` [Example 122, 2-methoxyethyl 4-((2-(3,5-bis(trifluoromethyl)phenyl)-4,5-bis(4-methoxyphenyl)-1H-imidazole-1-yl)methyl)benzoate], in that order: 58 ± 0.28% and 57 ± 0.77%.
For `NCCOCCOCCNC(=O)c1ccc(Cn2c(-c3cc(C(F)(F)F)cc(C(F)(F)F)c3)nc(-c3ccccc3Cl)c2-c2ccccc2Cl)cc1` [Example 123, N-(2-(2-(2-aminoethoxy)ethoxy)ethyl)-4-((2-(3,5-bis(trifluoromethyl)phenyl)-4,5-bis(2-chlorophenyl)-1H-imidazole-1-yl)methyl)benzamide] the same measures were 11 ± 0.7% and 8 ± 0.76%.
As to `NCCOCCOCCNC(=O)c1ccc(Cn2c(-c3ccc(C(F)(F)F)cc3)nc(-c3ccccc3)c2-c2ccccc2)cc1` [Example 128, N-(2-(2-(2-aminoethoxy)ethoxy)ethyl)-4-((4,5-diphenyl-2-(4-(trifluoromethyl)phenyl)-1H-imidazole-1-yl)methyl)benzamide], the cytotoxicity at 15 µM was 77 ± 0.76% in the assay on A549 cells and 78 ± 1.61% with HeLa cells.
`N=C(N)c1ccc(Cn2c(-c3cc(C(F)(F)F)cc(C(F)(F)F)c3)nc(-c3ccc(Br)cc3)c2-c2ccc(Br)cc2)cc1` [Example 181, 4-((2-(3,5-bis(trifluoromethyl)phenyl)-4,5-bis(4-bromophenyl)-1H-imidazole-1-yl)methyl)benzimidamide]: the figures for the cytotoxicity at 15 µM with A549 cells and in the assay on HeLa cells were 93 ± 0.59% and 94 ± 1.26%, respectively.
Take `COc1cccc(-c2nc(-c3cc(C(F)(F)F)cc(C(F)(F)F)c3)n(Cc3ccc(C(=N)N)cc3)c2-c2cccc(OC)c2)c1` [Example 182, 4-((2-(3,5-bis(trifluoromethyl)phenyl)-4,5-bis(3-methoxyphenyl)-1H-imidazole-1-yl)methyl)benzimidamide]: the cytotoxicity at 15 µM with A549 cells stood at 49 ± 0.82%; with HeLa cells, 49 ± 0.48%.
For `Cc1ccc(-c2nc(-c3cc(C(F)(F)F)cc(C(F)(F)F)c3)n(Cc3ccc(C(=N)N)cc3)c2-c2ccc(C)cc2)cc1` [Example 183, 4-((2-(3,5-bis(trifluoromethyl)phenyl)-4,5-ditolyl-1H-imidazole-1-yl)methyl)benzimidamide], in that order: 56 ± 1.07% and 56 ± 0.38%.
Regarding `N=C(N)c1ccc(Cn2c(-c3cc(C(F)(F)F)cc(C(F)(F)F)c3)nc(-c3ccccc3)c2-c2ccccc2)cc1` [Example 184, 4-((2-(3,5-bis(trifluoromethyl)phenyl)-4,5-diphenyl-1H-imidazole-1-yl)methyl)benzimidamide], the values for the cytotoxicity at 15 µM in the assay on A549 cells and with HeLa cells were 79 ± 0.77% and 79 ± 0.46%, respectively.
